# Experimental data as given in US11673897B2, “Compounds for the treatment of kinase-dependent disorders” (Exelixis, Inc., priority 2018, dated 2023).
# How the values were obtained:
# [1] = target: Mer (Homo sapiens (Human), UniProt Q12866); assay: Human Mer kinase assay (33P radiometric, KinaseProfiler); type: biochemical; conditions: 10 μM ATP
# Procedure: (§1) Kinase activity and compound inhibition were investigated using the ^33P-Phosphoryl transfer radiometric kinase assay, performed using the KinaseProfiler™ service of Eurofins Pharma Discovery Services UK Limited. Dose-response experiments were performed using nine compound concentrations in a 96-well microtiter plate. For each assay, all compounds were prepared to a 50× final assay concentration (50 μM) in 100% DMSO, then diluted in a half-log series, with the final top concentration at 1 μM. This working stock of the compound was added to the assay well as the first component in the reaction, followed by the remaining components as detailed in the following assay protocols below. The positive control wells (100% kinase activity) contain all components of the reaction including 2% DMSO (control for solvent effects), except the compound of interest. Blank wells contain all components of the reaction, with the reference inhibitor, staurosporine. This reference compound was used to abolish kinase activity and generated the 0% kinase activity base-line. IC50 values were calculated by nonlinear regression analysis using the sigmoidal dose-response (variable slope) curve fit on XLFit version 5.3 (ID Business Solutions).
# Human Mer (residues R557-E882 with H628Q and R794A, 0.7 nM) was incubated with 8 mM MOPS pH 7.0, 0.2 mM EDTA, 30 mM NaCl, 250 μM GGMEDIYFEFMGGKKK (SEQ ID NO. 44), 10 mM magnesium acetate, and 10 μM [γ-^33P-ATP]. The reaction was initiated by the addition of the Mg/ATP mix. After incubation for 40 minutes at room temperature, the reaction was stopped by the addition of phosphoric acid to a concentration of 0.5%. A reaction aliquot of 10 μL was then spotted onto a P30 filtermat and washed four times for 4 minutes in 0.425% phosphoric acid and once in methanol prior to drying and scintillation counting. Incorporated ^33P was measured using the Wallac Microbeta scintillation counter (Perkin Elmer).
# [2] = target: T1, Met (Homo sapiens (Human), UniProt P08581); assay: Human Met kinase assay (33P radiometric, KinaseProfiler); type: biochemical; conditions: 10 μM ATP, read-out: c-Met IC50
# Procedure: as §1
# Human Met (residues R974-S1390 with A1209G and V1290L, 3.4 nM) was incubated with 8 mM MOPS pH 7.0, 0.2 mM EDTA, 250 μM KKKGQEEEYVFIE (SEQ ID NO. 45), 1 mM sodium orthovanadate, 5 mM […], 10 mM magnesium acetate, and 10 μM [γ-33P-ATP]. The reaction was initiated by the addition of the Mg/ATP mix. After incubation for 40 minutes at room temperature, the reaction was stopped by the addition of phosphoric acid to a concentration of 0.5%. A reaction aliquot of 10 μL was then spotted onto a P30 filtermat and washed four times for 4 minutes in 0.425% phosphoric acid and once in methanol prior to drying and scintillation counting. Incorporated 33P was measured using the Wallac Microbeta scintillation counter (Perkin Elmer).
# [3] = target: T1, Met; assay: Met autophosphorylation ELISA in PC-3 cells; type: cell-based; conditions: cellular, HGF-stimulated, phospho-Met ELISA, read-out: c-Met IC50
# Outline: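 PC-3 cells serum-starved 3 h were treated 1 h with an 8-point compound series (0.3% DMSO), then stimulated 10 min with 100 ng/mL human HGF. Phospho-Met (panTyr) in lysates was measured by sandwich ELISA against DMSO (100%) and reference-inhibitor (0%) controls, and IC50 came from a 4-parameter logistic fit.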
# Target sequence in this assay (P08581 25-1390): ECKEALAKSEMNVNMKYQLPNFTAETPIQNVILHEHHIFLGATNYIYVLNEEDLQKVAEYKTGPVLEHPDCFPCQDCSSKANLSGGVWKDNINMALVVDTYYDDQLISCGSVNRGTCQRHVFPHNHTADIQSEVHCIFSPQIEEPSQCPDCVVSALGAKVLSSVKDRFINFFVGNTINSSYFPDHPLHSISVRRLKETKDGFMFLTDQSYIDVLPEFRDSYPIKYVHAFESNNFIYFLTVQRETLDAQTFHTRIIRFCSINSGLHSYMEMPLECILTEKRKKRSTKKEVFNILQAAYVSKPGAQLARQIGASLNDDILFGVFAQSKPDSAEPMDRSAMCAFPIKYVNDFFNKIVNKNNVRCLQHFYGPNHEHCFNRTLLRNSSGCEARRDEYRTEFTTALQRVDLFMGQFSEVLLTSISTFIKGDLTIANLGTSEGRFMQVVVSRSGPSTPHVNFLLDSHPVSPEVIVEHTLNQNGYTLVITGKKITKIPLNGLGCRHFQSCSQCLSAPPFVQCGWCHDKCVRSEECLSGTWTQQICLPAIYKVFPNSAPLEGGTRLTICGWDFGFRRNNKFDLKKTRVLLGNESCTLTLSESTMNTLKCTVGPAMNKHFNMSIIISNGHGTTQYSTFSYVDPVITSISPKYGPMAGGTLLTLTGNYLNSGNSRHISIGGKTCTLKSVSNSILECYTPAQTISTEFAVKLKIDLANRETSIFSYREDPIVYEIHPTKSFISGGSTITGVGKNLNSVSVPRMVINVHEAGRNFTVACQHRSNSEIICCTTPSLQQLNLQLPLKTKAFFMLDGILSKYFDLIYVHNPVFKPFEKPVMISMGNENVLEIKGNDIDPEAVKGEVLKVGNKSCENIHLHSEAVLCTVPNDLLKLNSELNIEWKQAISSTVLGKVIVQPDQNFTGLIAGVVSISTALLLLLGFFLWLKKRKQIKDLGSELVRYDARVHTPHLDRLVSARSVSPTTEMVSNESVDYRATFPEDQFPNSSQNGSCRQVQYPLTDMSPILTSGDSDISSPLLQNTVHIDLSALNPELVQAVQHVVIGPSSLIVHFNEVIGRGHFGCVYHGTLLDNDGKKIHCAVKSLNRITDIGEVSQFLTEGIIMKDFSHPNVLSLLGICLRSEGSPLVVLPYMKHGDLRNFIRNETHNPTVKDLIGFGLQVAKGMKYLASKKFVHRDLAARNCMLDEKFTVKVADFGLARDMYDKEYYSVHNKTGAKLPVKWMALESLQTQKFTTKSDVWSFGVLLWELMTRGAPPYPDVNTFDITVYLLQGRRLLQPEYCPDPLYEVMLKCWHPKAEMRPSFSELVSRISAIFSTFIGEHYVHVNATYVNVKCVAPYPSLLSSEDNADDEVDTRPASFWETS
# [4] = target: KDR (Homo sapiens (Human), UniProt P35968); assay: KDR autophosphorylation ELISA in HUVEC cells; type: cell-based; conditions: cellular, VEGF165-stimulated, phospho-KDR ELISA
# Outline: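 HUVEC, 24 h serum-free starvation; cpd 8-pt dilution, 0.3% DMSO final, 1 h; VEGF165 100 ng/mL, 5 min; cold lysis; phospho-KDR ELISA; IC50, 4PL.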
# Sequence of KDR (P35968 20-1356): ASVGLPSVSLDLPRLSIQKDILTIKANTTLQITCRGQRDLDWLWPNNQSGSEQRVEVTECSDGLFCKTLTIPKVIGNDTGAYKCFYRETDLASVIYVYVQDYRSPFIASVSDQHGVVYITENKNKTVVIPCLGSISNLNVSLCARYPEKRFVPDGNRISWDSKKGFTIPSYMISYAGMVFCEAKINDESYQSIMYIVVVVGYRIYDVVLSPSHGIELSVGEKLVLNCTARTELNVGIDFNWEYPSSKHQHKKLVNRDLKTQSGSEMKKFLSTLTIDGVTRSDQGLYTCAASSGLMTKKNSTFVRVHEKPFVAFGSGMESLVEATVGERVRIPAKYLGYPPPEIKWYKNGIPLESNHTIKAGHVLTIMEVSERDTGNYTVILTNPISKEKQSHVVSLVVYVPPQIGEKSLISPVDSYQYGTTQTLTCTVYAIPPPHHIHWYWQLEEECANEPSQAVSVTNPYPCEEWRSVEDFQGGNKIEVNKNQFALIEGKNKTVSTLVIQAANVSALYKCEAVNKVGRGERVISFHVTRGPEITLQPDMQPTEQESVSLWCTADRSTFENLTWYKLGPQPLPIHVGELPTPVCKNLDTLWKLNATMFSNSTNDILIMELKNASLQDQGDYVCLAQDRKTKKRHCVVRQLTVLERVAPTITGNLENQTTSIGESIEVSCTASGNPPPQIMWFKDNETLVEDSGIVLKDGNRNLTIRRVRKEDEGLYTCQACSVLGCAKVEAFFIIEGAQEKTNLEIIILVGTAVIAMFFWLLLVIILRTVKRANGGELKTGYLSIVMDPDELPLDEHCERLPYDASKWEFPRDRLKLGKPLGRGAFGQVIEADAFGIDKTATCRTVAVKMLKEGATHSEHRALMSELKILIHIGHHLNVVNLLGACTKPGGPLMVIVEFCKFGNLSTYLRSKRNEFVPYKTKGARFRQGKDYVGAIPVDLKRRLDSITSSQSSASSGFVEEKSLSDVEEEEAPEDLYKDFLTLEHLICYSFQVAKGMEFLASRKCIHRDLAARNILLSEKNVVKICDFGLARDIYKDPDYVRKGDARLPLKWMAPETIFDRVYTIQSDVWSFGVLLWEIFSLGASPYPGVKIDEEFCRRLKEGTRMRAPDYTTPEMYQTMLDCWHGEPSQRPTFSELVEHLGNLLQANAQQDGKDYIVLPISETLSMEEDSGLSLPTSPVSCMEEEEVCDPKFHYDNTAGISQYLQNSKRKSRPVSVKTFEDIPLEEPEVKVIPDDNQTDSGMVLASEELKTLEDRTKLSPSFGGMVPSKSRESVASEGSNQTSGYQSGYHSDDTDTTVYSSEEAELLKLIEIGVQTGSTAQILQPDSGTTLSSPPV
# Sequence of Mer (Q12866 557-882): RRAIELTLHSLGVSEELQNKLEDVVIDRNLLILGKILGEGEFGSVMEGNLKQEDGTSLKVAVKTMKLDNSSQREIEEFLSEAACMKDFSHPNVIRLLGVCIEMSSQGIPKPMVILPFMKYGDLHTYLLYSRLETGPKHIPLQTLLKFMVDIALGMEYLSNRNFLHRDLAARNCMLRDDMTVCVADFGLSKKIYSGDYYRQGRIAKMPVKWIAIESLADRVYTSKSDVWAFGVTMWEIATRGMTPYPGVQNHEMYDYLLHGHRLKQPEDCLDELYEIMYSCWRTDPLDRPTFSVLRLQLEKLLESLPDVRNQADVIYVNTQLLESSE
SMILES,IC50 [1] [µM],IC50 [2] [µM],IC50 [3] [µM],IC50 [4] [µM]
"COC(=O)c1cc2c(Oc3ccc(NC(=O)C4(C(=O)Nc5ccc(F)cc5)CC4)cn3)ccnc2cc1OC [Compound 10, Methyl 4-[5-[[1-[(4-fluorophenyl)carbamoyl]cyclopropanecarbonyl]-amino]pyridin-2-yl]oxy-7-methoxyquinoline-6-carboxylate]",≤ 0.01,≤ 0.01,0.1 to 0.3,0.01 to 0.1
"COC(=O)c1cc2c(Oc3ncc(NC(=O)C4(C(=O)Nc5ccc(F)cc5)CC4)cc3Cl)ccnc2cc1OC [Compound 11, Methyl 4-[3-chloro-5-[[1-[(4-fluorophenyl)carbamoyl]cyclopropanecarbonyl]-amino]pyridin-2-yl]oxy-7-methoxyquinoline-6-carboxylate]",≤ 0.01,≤ 0.01,0.01 to 0.1,> 0.3
"COc1cc2nccc(Oc3ccc(NC(=O)C4(C(=O)Nc5ccc(F)cc5)CC4)cn3)c2cc1C(N)=O [Compound 16, 1-N′-[6-(6-Carbamoyl-7-methoxyquinolin-4-yl)oxypyridin-3-yl]-1-N-(4-fluorophenyl)-cyclopropane-1,1-dicarboxamide]",≤ 0.01,≤ 0.01,0.1 to 0.3,0.01 to 0.1
"CNC(=O)c1cc2c(Oc3ccc(NC(=O)C4(C(=O)Nc5ccc(F)cc5)CC4)cn3)ccnc2cc1OC [Compound 17, 1-N-(4-Fluorophenyl)-1-N′-[6-[7-methoxy-6-(methylcarbamoyl)quinolin-4-yl]oxypyridin-3-yl]cyclopropane-1,1-dicarboxamide]",0.01 to 0.1,0.01 to 0.1,0.1 to 0.3,0.01 to 0.1
"COc1cc2nccc(Oc3ncc(NC(=O)C4(C(=O)Nc5ccc(F)cc5)CC4)cc3Cl)c2cc1C(N)=O [Compound 18, 1-N′-[6-(6-Carbamoyl-7-methoxyquinolin-4-yl)oxy-5-chloropyridin-3-yl]-1-N-(4-fluorophenyl)cyclopropane-1,1-dicarboxamide]",≤ 0.01,≤ 0.01,0.01 to 0.1,> 0.3
"COc1cc2nccc(Oc3ccc(NC(=O)C4(C(=O)Nc5ccc(F)cc5)CC4)cn3)c2cc1-c1cn[nH]c1 [Compound 60, 1-N-(4-Fluorophenyl)-1-N′-[6-[7-methoxy-6-(1H-pyrazol-4-yl)quinolin-4-yl]oxypyridin-3-yl]cyclopropane-1,1-dicarboxamide]",≤ 0.01,≤ 0.01,0.01 to 0.1,0.1 to 0.3
"COc1cc2nccc(Oc3ncc(NC(=O)C4(C(=O)Nc5ccc(F)cc5)CC4)cc3Cl)c2nc1OC [Compound 80, 1-N′-[5-Chloro-6-[(6,7-dimethoxy-1,5-naphthyridin-4-yl)oxy]pyridin-3-yl]-1-N-(4-fluorophenyl)cyclopropane-1,1-dicarboxamide]",0.01 to 0.1,0.01 to 0.1,0.01 to 0.1,> 0.3
"COc1cc2nccc(Oc3ccc(NC(=O)C4(C(=O)Nc5ccc(F)cc5)CC4)cn3)c2nc1OC [Compound 81, 1-N′-[6-[(6,7-Dimethoxy-1,5-naphthyridin-4-yl)oxy]pyridin-3-yl]-1-N-(4-fluorophenyl)cyclopropane-1,1-dicarboxamide]",0.01 to 0.1,0.01 to 0.1,0.1 to 0.3,> 0.3
"COc1cc2nccc(Oc3ncc(NC(=O)C4(C(=O)Nc5ccc(F)cc5)CC4)cc3F)c2nc1OC [Compound 82, 1-N′-[6-[(6,7-Dimethoxy-1,5-naphthyridin-4-yl)oxy]-5-fluoropyridin-3-yl]-1-N-(4-fluorophenyl)cyclopropane-1,1-dicarboxamide]",≤ 0.01,≤ 0.01,0.01 to 0.1,> 0.3
